Experimental findings from ChEMBL document CHEMBL4270497, “Recent advances (2015-2016) in anticancer hybrids” (Eur J Med Chem, 2017) are described below.

Assay [1] concerns the target Vascular endothelial growth factor receptor 1 (Homo sapiens, UniProt P17948). Nature of the assay: Inhibition of VEGFR1 (unknown origin) using KKKSPGEYVNIEFG substrate and [33P-g-ATP] incubated for 30 mins.
The subject of another assay is LS180. Nature of the assay: Inhibition of P-gp in human LS180 cells assessed as reduction in doxorubicin cytotoxic IC50 level at 50 uM by MTT assay. Format: functional. Background: Tetrazolium dyes change colour on reduction, which living cells bring about.
The next assay relates to HUVEC. Nature of the assay: Inhibition of VEGF-induced cell migration of HUVEC assessed as wound closure level at cytotoxic IC50 incubated for 24 hrs (reference value: 100%). Format: functional, Homo sapiens. Further details: scale not given: the % may be the effect or the level left.

Sequence of Vascular endothelial growth factor receptor 1 (P17948 whole entry): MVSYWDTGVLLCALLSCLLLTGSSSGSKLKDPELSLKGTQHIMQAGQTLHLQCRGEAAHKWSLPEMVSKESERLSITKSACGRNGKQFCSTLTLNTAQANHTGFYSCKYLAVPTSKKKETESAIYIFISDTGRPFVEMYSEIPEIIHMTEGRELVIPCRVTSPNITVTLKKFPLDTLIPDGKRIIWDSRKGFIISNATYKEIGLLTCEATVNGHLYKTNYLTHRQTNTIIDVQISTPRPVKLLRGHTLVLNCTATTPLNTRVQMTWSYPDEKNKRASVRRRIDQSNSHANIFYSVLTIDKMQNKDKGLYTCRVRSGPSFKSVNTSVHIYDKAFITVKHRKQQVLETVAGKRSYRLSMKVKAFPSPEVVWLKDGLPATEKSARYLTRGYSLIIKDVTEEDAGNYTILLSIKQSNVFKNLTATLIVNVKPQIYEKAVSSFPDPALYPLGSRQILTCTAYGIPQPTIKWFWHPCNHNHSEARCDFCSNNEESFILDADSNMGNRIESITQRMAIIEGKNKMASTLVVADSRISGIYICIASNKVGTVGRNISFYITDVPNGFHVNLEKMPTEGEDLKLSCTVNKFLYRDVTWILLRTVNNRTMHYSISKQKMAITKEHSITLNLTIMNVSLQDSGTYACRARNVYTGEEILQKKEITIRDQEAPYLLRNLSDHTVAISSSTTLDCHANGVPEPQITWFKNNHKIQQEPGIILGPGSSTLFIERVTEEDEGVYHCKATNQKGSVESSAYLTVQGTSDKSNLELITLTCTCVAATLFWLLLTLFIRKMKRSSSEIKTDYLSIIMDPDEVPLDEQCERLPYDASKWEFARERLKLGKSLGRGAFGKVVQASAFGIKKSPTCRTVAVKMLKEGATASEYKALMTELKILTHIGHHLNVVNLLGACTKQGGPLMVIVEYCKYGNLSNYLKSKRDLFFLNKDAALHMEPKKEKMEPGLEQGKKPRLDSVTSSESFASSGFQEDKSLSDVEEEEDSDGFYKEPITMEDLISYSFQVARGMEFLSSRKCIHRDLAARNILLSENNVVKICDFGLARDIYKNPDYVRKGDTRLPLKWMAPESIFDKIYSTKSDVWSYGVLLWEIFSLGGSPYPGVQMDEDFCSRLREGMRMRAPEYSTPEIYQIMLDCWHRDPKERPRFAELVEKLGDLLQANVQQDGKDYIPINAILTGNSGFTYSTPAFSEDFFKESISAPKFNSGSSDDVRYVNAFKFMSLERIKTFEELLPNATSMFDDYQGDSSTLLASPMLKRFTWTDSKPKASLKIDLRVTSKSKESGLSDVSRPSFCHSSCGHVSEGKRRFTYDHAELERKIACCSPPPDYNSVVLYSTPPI

Regarding `O=C(Nc1ccc(F)cc1)c1sccc1Nc1cccc2c1OCO2`, in assay [1], the IC50 (usually the midpoint of a concentration-inhibition curve) turned out to be 2.5 µM. Also, the “Ratio IC50” value in the assay on LS180 stood at 14. Further, in the assay with HUVEC, the Activity turned out to be 20%.
